Experimental findings from patent publication US5059590A, “Imidazole derivatives, process for production thereof, and use thereof” (Yamasa Shoyu Kabushiki Kaisha, priority 1988, dated 1991) are described below.

Values after ≈ are worked out from the molar mass of the structure shown.

What all share (type): cell-based
Assay [1] deals with L1210 mouse leukemia cells. In words: In vitro anti-proliferative activity against mouse tumor cell lines, Test Method 1 (L1210). Conditions: L1210, 48 hours, 37° C. The method, then: In vitro anti-proliferative activity against mouse tumor cell lines
1. L1210 mouse leukemia cells are cultivated in RPMI1640 medium supplemented with 10% fetal bovine serum, and the resultant cells are diluted with the same medium in the logarithmic growth phase to a concentration of 1.6×10^5 cells/ml.
2. To test tubes each containing 0.9 ml of the above obtained diluted cell suspension is added 0.1 ml each of test solutions serially diluted with a culture medium or phosphate-buffered saline (PBS), and the mixture is incubated in a 2% CO2 -incubator at 37° C. for 48 hours.
3. After incubation, the number of the cells in each tube is counted with a Coulter counter (Model ZB, Coulter Electronics), and the growth inhibition percent (%) of the cells at each concentration of a test compound is calculated from the following equation: [formula] Tx: Number of the cells in a test tube containing a test compound as counted upon completion of the incubation (cells/ml)
Cx: Number of the cells in a test tube containing no test compound as counted upon completion of the incubation (cells/ml)
Co: Number of the cells in a test tube containing no test compound as counted at the initiation of the incubation (cells/ml)
4. The concentration of the test compound, which causes cell growth inhibition by 50%, is determined by the graph showing the relationship between the growth inhibition percent and the concentration of the test compound, and is defined as 50% inhibitory concentration (IC50).

Another assay relates to WiDr. Briefly: In vitro anti-proliferative activity against human tumor cell lines (WiDr). Conditions: Colon adenocarcinoma, 72 hours. How it is done:
(§1) In vitro anti-proliferative activity against human tumor cell lines
(§2) Test Compound: 5-ethynyl-1-β-D-ribofuranosylimidazole-4-carboxamide
(§3) A variety of human tumor cell lines are suspended in media specified according to the species of the cell lines to predetermined cell concentrations as shown in the following Table.
(§4) 1 ml of the resulting cell suspension is seeded into each well of a 24 multi-well plate and incubated in a 5% CO2 -incubator at 37° C. for 24 hours. The culture medium is then replaced by a medium containing no test compound or by an appropriate amount of a serially diluted test compound solution. […] The number of the cells in each well is counted with a Coulter counter (Model ZB, Coulter Electronics), and the growth inhibition percent (%) of the cells at each concentration of a test compound is determined by the following equation: [formula] Tx: Number of the cells in a well containing a test compound as counted upon completion of the incubation (cells/ml) […] Cx: Number of the cells in a well containing no test compound as counted upon completion of the incubation (cells/ml)
(§5) Co: Number of the cells in a well containing no test compound as counted at the initiation of the incubation (cells/ml) […]

A further assay has as its system MG-63. Briefly: In vitro anti-proliferative activity against human tumor cell lines (MG-63). Conditions: MG-63, Osteogenic sarcoma, 72 hours. The method, then: as §1, §2, §3, §4, §5
The next assay deals with A549. In words: In vitro anti-proliferative activity against human tumor cell lines (A549). Conditions: A549, Lung carcinoma, 72 hours. How it is done:
as §1, §2, §3, §4, §5

A further assay concerns Dul45. Briefly: In vitro anti-proliferative activity against human tumor cell lines (Dul45). Conditions: Dul45, Prostate carcinoma, 72 hours. The method, then: as §1, §2, §3, §4, §5
In a further assay the test system is SK-MES-1. In words: In vitro anti-proliferative activity against human tumor cell lines (SK-MES-1). Particulars: SK-MES-1, Lung Squamous carcinoma, 72 hours. How it is done:
as §1, §2, §3, §4, §5

In another assay the test system is HEp-2. In words: In vitro anti-proliferative activity against human tumor cell lines (HEp-2). Conditions: HEp-2, Laryngeal carcinoma, 72 hours. How it is done:
as §1, §2, §3, §4, §5

`C#Cc1c(C(N)=O)ncn1[C@@H]1O[C@H](CO)[C@@H](O)[C@H]1O` [5-ethynyl-1-β-D-ribofuranosylimidazole-4-carboxamide]: the IC50 (usually the concentration that gives 50% inhibition) was 0.18 µg/mL (≈ 0.674 µM) in assay [1]; 0.46 µg/mL (≈ 1.72 µM) in the assay on WiDr; 0.38 µg/mL (≈ 1.42 µM) in the assay with MG-63; 0.37 µg/mL (≈ 1.38 µM) in the assay on A549; < 0.1 µg/mL in the assay on Dul45; 0.26 µg/mL (≈ 0.973 µM) in the assay with SK-MES-1. The compound also showed a half-maximal inhibitory concentration (IC50) with HEp-2 of 0.47 µg/mL (≈ 1.76 µM).
